Experimental findings from PubChem BioAssay (NCI) are described below.

Where “and” joins values, the source holds several entries; their conditions need not be identical. Equal entries are not always repeated.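 1) Cells in 96-well plates. 2) Compound, 48 h, 5 concentrations. 3) Linear interpolation between surrounding doses. 4) Unreached endpoint = highest concentration. GI50: concentration for 50% inhibition of growth. Definition used: TGI = concentration required for complete inhibition of growth.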

Holding throughout (assay): NCI tumour cell line growth inhibition, 48 h
Assay [1] has as its system HCT-15 colon.
Assay [2] relates to RXF 393 renal.
For assay [3], the system named is MDA-MB-231 breast.
In assay [4] the test system is NCI-H23 lung.
Assay [5] deals with SK-MEL-28 melanoma.
Assay [6] has as its system DU-145 prostate.
Assay [7] relates to UACC-62 melanoma.
In assay [8] the test system is RPMI-8226 leukemia.
Assay [9] relates to M14 melanoma.
Assay [10] deals with NCI-H226 lung.

`C/C(=N\Nc1nc2ccccc2s1)c1ncccn1`: the TGI in assay [1] was 2.45 µM; in [2], 4.68 µM; in assay [3] it was more than 64.6 µM; in assay [4], 1.11 µM; in assay [5] it was more than 100 µM; in assay [6], more than 100 µM. Also, the TGI in assay [7] is 1.06 µM.
On to `COc1ccc(N2C(=O)C3c4[nH]c5ccc(C)cc5c4C4CCC(C)CC4C3C2=O)cc1` (centres undefined), for which the TGI was more than 100 µM in assay [1]; 58.6 µM in assay [2]; more than 100 µM in [3]; more than 100 µM in assay [8]; more than 100 µM in [9]; more than 100 µM in [4]. The TGI in assay [6], in assay [10] and in assay [7] was more than 100 µM in each case.
In the case of `N#CC(C#N)=Cc1ccc2c(c1)OC(Cl)O2` (centres undefined), the TGI in [1] was 46.4 µM; in assay [2] it was 52.3 µM; in [8], more than 100 µM; in assay [9], 55.7 µM; in [4], more than 100 µM; in [5], 36.9 µM. For the same molecule, the TGI in assay [6] was found to be 63 µM; in assay [10] it was 38.2 µM; in assay [7], 59.3 µM.
Take `O=C(c1ccccc1)c1ccc(COc2ccc(C(c3c(O)c4ccccc4oc3=O)c3c(O)c4ccccc4oc3=O)cc2)cc1`: the TGI in assay [1] is more than 100 µM; in assay [2] it was 44.5 µM; in [3] it was more than 100 µM; in [8], 38.4 µM; in assay [4], 37.6 µM; in assay [5], 47.4 µM. In addition, the values for the TGI in assay [6], in assay [10] and in assay [7] were more than 100 µM, 31 µM and 30 µM, respectively.
As to `CC1(C)CC(=O)c2c(nc3ccc4ccccc4c3c2-c2ccc(NC(=O)CCCC(=O)Nc3ccc(-c4c5c(nc6ccc7ccccc7c46)CC(C)(C)CC5=O)cc3)cc2)C1`, the TGI in assay [1], in assay [3], in [8], in [9], in assay [4] and in [5] was more than 100 µM each time. For the same molecule, the TGI in [6], in assay [10] and in assay [7] was more than 100 µM in each case.
Turning to `CN(C(=O)Cc1cc(Cl)c(Cl)cc1N=C=S)[C@H]1CCCC[C@@H]1N1CCCC1`, the TGI came out at 29.1 µM in assay [1]; 13.1 µM in assay [2]; 28.6 µM in [3]; 28 µM in [8]; 29.6 µM in [9]; 30.5 µM in [4]. Further, the results for the TGI in assay [5], in [6] and in assay [7] were 7.65 µM, 27.8 µM and 30.3 µM, respectively.
As for `CC(=O)OCC(OC(C)=O)C(OC(C)=O)C(C=NN(C(C)=O)S(=O)(=O)c1ccc(/C=C2\NC(=O)NC2=O)cc1)OC(C)=O` (centres undefined), the TGI in [1], in [2], in assay [3], in [8], in assay [9] and in [4] was more than 100 µM in each case. Besides, the TGI in assay [6], in [10] and in assay [7] was more than 100 µM throughout. Besides, in [8], the GI50 was more than 100 µM.
Consider `COc1ccc(NC(=O)/C(=N\NC(=O)C[n+]2ccccc2)c2c(O)c3ccc(O)cc3oc2=O)c([N+](=O)[O-])c1`, for which the TGI in assay [1], in assay [3], in [8], in assay [9], in assay [4] and in assay [5] was more than 100 µM throughout. Further, the TGI in [6], in assay [10] and in assay [7] was more than 100 µM in each case.
On to `COc1c2c(cc3oc(C)cc(=O)c13)OC(=N)C(C(N)=O)C2CC(=O)c1ccc(N)cc1` (centres undefined), for which the TGI in [1], in assay [2], in assay [3], in assay [8], in [9] and in [5] was more than 100 µM throughout. The TGI in assay [6], in [10] and in assay [7] was more than 100 µM throughout.
For the molecule `COc1ccc(NS(=O)CCCc2ccccc2)cc1` (centres undefined), the TGI in assay [1], in [3], in assay [8], in assay [4], in assay [5] and in [6] was more than 100 µM in each case. Further, the TGI in [10] and in [7] was more than 100 µM in each case.
In the case of `COc1cc2cc(C(=O)N3CC(CCl)c4ccc(O)cc43)[nH]c2c(OC)c1OC` (centres undefined), the TGI in assay [1] worked out at 0.0412 µM; in assay [2], 0.000301 µM; in [3], 0.0134 µM; in assay [9], 0.12 µM; in assay [4], 0.812 µM; in [5] it was 0.00601 µM. The TGI is 0.661 µM in assay [6]; 0.0566 µM and 0.471 µM in assay [10]; 0.00683 µM in assay [7]. For the same molecule, the GI50 in assay [10] was 0.116 µM.
For `Cc1n[nH]c(=O)c2cc(-c3ccccc3)[nH]c12`, the TGI in assay [1], in assay [2], in assay [3], in [8], in assay [9] and in [4] was more than 100 µM throughout. The TGI in [6], in assay [10] and in [7] was more than 100 µM in each case.
Regarding `O=c1cc(-c2cccc(Cl)c2)[nH]c2ncccc12`, the TGI in assay [1] is more than 100 µM; in [2], 40.1 µM; in assay [9] it was more than 100 µM; in assay [4], more than 100 µM; in [5], more than 100 µM; in assay [6], more than 100 µM. Moreover, the TGI in assay [10] and in assay [7] was more than 100 µM each time.
Take `C=C1CC2OC2(C(=O)O[C@H]2CCC3[C@@H]4CCC5=CC(=O)CC[C@]5(C)C4CC[C@@]32C)C1=O` (some centres undefined): the TGI in assay [1] was 23.1 µM; in assay [2] it was 10.9 µM; in assay [8], 5.79 µM; in assay [9], 16.6 µM; in [4], 27.3 µM; in assay [5], 17.8 µM. Also, the TGI was found to be 32.9 µM in assay [6], 55.5 µM in assay [10] and 28.7 µM in assay [7].
